The source of these data is patent US10875845B2, “Compounds and methods for the treatment of ocular disorders” (Azura Ophthalmics Ltd., priority 2019, dated 2020).

Each structure is given as a SMILES string.

Series [1] relates to Rabbit Cornea Homogenate. The series is described as follows: Rabbit Cornea Homogenate Stability Assay (rabbit cornea esterase assay). It counts as in vitro ADME. The following applies: 37° C. The procedure: Determining Rabbit Cornea Homogenate stability of the test compounds was performed using HPLC-MS. The assay was performed at two concentrations of Rabbit Cornea Homogenate (0.15 mg/ml and 0.45 mg/ml total protein) so that any hydrolysis observed could be assigned as esterase dependent or not.
Five rabbit corneas (e.g. New Zealand Whites) of approx. 50 mg each were sliced and scraped with a scalpel and tweezers until reduced to small (1-3 mm), thin pieces. These were transferred into a tared vial and accurately weighed, then diluted with 10 volumes aqueous PBS pH7.4
Sample was cooled intermittently on ice and shear homogenized for 3 minutes, then centrifuged for 3 min at 3000 rpm. The supernatant was pipetted off into a vial, and total protein concentration determined at 280 nm. Sample was stored at −78° C.
10 mM Compound stocks were diluted to 100 μM in a 96 deep-well plate: 10 μl of 10 mM Compound stock was added to 990 μl 50 mM HEPES, pH7.5 buffer.
Compounds were further diluted to 10 μM: 100 μl of 100 μM compound was added to 900 μl 50 mM HEPES, pH7.5 buffer.
Esterase homogenate was diluted to 300 ng/μl and 900 ng/μl
A heater shaker was set to 37° C. Into a suitable 96 well plate (Run Plate), 75 μl of 300 or 900 ng/μl esterase homogenate was pipetted into each of the required wells (2 min, 5 min, 10 min, 20 min and 45 min). The plate was sealed and then warmed at 37° C. for 5 min. Another 96 well PCR plate is put on ice (Kill Plate). To this was added 100 μl of MeCN to each well, labelled 0 min, 2 min, 5 min, 10 min, 20 min and 45 min. The plate was covered to minimise evaporation. For the T=0 sample only, to the 100 μl cold MeCN stop solution was added 50 μl of 300 or 900 ng/μl esterase homogenate followed by 50 μl of 10 μM compound solution For the remaining time points, 75 μl of 10 μM compound solution was added to the Run Plate starting from T=45 min row and ending with T=2 min row. At the appropriate time point, 100 μl of the assay mixture was added to the matching kill plate well containing 100 μl of cold MeCN. Samples were analysed as soon as practicable by LCMS (Waters Xevo TQ-S or Micromass Ultima).
Parent conjugate and parent concentrations were determined against appropriate standard response curves and the half-life (T1/2) of the parent conjugate was calculated using the peak area of the parent conjugate at each time point in the linear region of the log—linear plot.

The nature of series [2]: Aqueous Hydrolysis Stability Assay. It counts as physicochemical. To be noted: 100 μM in 50 mM HEPES pH 7.5 buffer or 1:1 Acetonitrile:Water, room temperature. The procedure:
Determination of aqueous stability of the test compounds was performed using HPLC-MS. A test compound 10 mM stock solution was prepared in DMSO. 10 μl of the DMSO stock solution was dissolved in 990 μl of 50 mM HEPES pH 7.5 buffer or 1:1 (v/v) of Acetonitrile:Water to make a 100 μM solution. Final DMSO concentration was 1%. The solution was kept at room temperature and injected without delay into the LCMS (Waters Xevo TQ-S or Micromass Ultima). Additional injections were performed at appropriate time points.
Half-life (T1/2) of the parent conjugate was calculated using the peak area of the parent conjugate at each time point in the linear region of the log—linear plot.

Where [3] appears, read: Cornea Homogenate Conc 0.15 mg/mL.
[4] abbreviates: Cornea Homogenate Conc 0.45 mg/mL.

`COC(=O)OC(C)OC(=O)[C@H](Cc1cccc(S(C)(=O)=O)c1)NC(=O)c1c(Cl)cc2c(c1Cl)CCN(C(=O)c1ccc3ccoc3c1)C2` (stereo partly drawn) [Comp 3, 1-((methoxycarbonyl)oxy) ethyl (2S)-2-(2-(benzofuran-6-carbonyl)-5,7-dichloro-1,2,3,4-tetrahydroisoquinoline-6-carboxamido)-3-(3-(methylsulfonyl)phenyl) propanoate]: in series [1] (setting [3]), the “API Formation rate” value is reported as “d (API formation rate>1.5%/min)” and the “Esterase % Lifitegrast formation at 45 min” value is listed as “B (percent API formation 25% to 50%)”. Moreover, in series [1] (setting [4]), the “API Formation rate” value was “b (API formation rate 0.5-1.0%/min)” and the “Esterase % Lifitegrast formation at 45 min” value is listed as “C (percent API formation 51% to 75%)”. Also, in series [2] (at 45 min), the “Hydrolytic % Lifitegrast formation at [time]” value is “B [45 min] (percent API formation 1.5-4%)”.

Turning to `CC(=O)OCC(COC(C)=O)COC(=O)OC(C)OC(=O)[C@H](Cc1cccc(S(C)(=O)=O)c1)NC(=O)c1c(Cl)cc2c(c1Cl)CCN(C(=O)c1ccc3ccoc3c1)C2` (stereo partly drawn) [Comp 11, 2-((8S)-10-(2-(benzofuran-6-carbonyl)-5,7-dichloro-1,2,3,4-tetrahydroisoquinolin-6-yl)-5-methyl-8-(3-(methylsulfonyl)benzyl)-3,7,10-trioxo-2,4,6-trioxa-9-azadecyl)propane-1,3-diyl diacetate], the “API Formation rate” value was “b (API formation rate 0.5-1.0%/min)” in series [1] (setting [3]) and “c (API formation rate 1.0-1.5%/min)” in series [1] (setting [4]). The “Esterase % Lifitegrast formation at 45 min” value in series [1] (setting [3]) and in series [1] (setting [4]) was “B (percent API formation 25% to 50%)” in each case. Also, in series [2] (at 142 min), the “Hydrolytic % Lifitegrast formation at [time]” value was “C [142 min] (percent API formation>4%)”.

On to `CCOC(=O)[C@@H](C)OC(=O)OC(C)OC(=O)[C@H](Cc1cccc(S(C)(=O)=O)c1)NC(=O)c1c(Cl)cc2c(c1Cl)CCN(C(=O)c1ccc3ccoc3c1)C2` (stereo partly drawn) [Comp 8, 1-(((((R)-1-ethoxy-1-oxopropan-2-yl)oxy)carbonyl)oxy)ethyl (2S)-2-(2-(benzofuran-6-carbonyl)-5,7-dichloro-1,2,3,4-tetrahydroisoquinoline-6-carboxamido)-3-(3-(methylsulfonyl)phenyl) propanoate], for which the “API Formation rate” value in series [1] (setting [3]) was “b (API formation rate 0.5-1.0%/min)”; in series [1] (setting [4]), “d (API formation rate>1.5%/min)”. The “Esterase % Lifitegrast formation at 45 min” value in series [1] (setting [3]) was “B (percent API formation 25% to 50%)”; in series [1] (setting [4]) it was “C (percent API formation 51% to 75%)”. In addition, in series [2] (at 45 min), the “Hydrolytic % Lifitegrast formation at [time]” value is “A [45 min] (percent active pharmaceutical ingredient (API) formation<1.5%)”.

With `CC(OC(=O)C(C)C)OC(=O)[C@H](Cc1cccc(S(C)(=O)=O)c1)NC(=O)c1c(Cl)cc2c(c1Cl)CCN(C(=O)c1ccc3ccoc3c1)C2` (stereo partly drawn) [Comp 16, 1-(isobutyryloxy)ethyl (2S)-2-(2-(benzofuran-6-carbonyl)-5,7-dichloro-1,2,3,4-tetrahydroisoquinoline-6-carboxamido)-3-(3-(methylsulfonyl)phenyl) propanoate], in series [1] (setting [3]), the “API Formation rate” value is reported as “d (API formation rate>1.5%/min)” and the “Esterase % Lifitegrast formation at 45 min” value was “D (percent API formation>75%)”. Besides, in series [1] (setting [4]), the “API Formation rate” value is “d (API formation rate>1.5%/min)” and the “Esterase % Lifitegrast formation at 45 min” value is “D (percent API formation>75%)”. Further, in series [2] (at 142 min), the “Hydrolytic % Lifitegrast formation at [time]” value was “C [142 min] (percent API formation>4%)”.

`CC(OC(=O)CCCC[C@@H]1CCSS1)OC(=O)[C@H](Cc1cccc(S(C)(=O)=O)c1)NC(=O)c1c(Cl)cc2c(c1Cl)CCN(C(=O)c1ccc3ccoc3c1)C2` (stereo partly drawn) [Comp 20, 1-(((S)-2-(2-(benzofuran-6-carbonyl)-5,7-dichloro-1,2,3,4-tetrahydroisoquinoline-6-carboxamido)-3-(3-(methylsulfonyl)phenyl)propanoyl)oxy)ethyl 5-((R)-1,2-dithiolan-3-yl)pentanoate]: in series [1] (setting [3]), the “API Formation rate” value is listed as “a (API formation rate<0.5%/min)” and the “Esterase % Lifitegrast formation at 45 min” value is recorded as “A (percent active pharmaceutical ingredient (API) formation<25%)”. In series [1] (setting [4]), the “API Formation rate” value is on record as “b (API formation rate 0.5-1.0%/min)” and the “Esterase % Lifitegrast formation at 45 min” value was “B (percent API formation 25% to 50%)”. Besides, the “Hydrolytic % Lifitegrast formation at [time]” value in series [2] (at 45 min) is “A [45 min] (percent active pharmaceutical ingredient (API) formation<1.5%)”.

With `CC(OC(=O)OCC1COC(C)(C)OC1)OC(=O)[C@H](Cc1cccc(S(C)(=O)=O)c1)NC(=O)c1c(Cl)cc2c(c1Cl)CCN(C(=O)c1ccc3ccoc3c1)C2` (stereo partly drawn) [Comp 9, 1-((((2,2-dimethyl-1,3-dioxan-5-yl)methoxy)carbonyl)oxy) ethyl (2S)-2-(2-(benzofuran-6-carbonyl)-5,7-dichloro-1,2,3,4-tetrahydroisoquinoline-6-carboxamido)-3-(3-(methylsulfonyl)phenyl) propanoate], the “API Formation rate” value in series [1] (setting [3]) is reported as “b (API formation rate 0.5-1.0%/min)”; in series [1] (setting [4]), “d (API formation rate>1.5%/min)”. The “Esterase % Lifitegrast formation at 45 min” value is given as “B (percent API formation 25% to 50%)” in series [1] (setting [3]) and “C (percent API formation 51% to 75%)” in series [1] (setting [4]). The “Hydrolytic % Lifitegrast formation at [time]” value in series [2] (at 142 min) was “B [142 min] (percent API formation 1.5-4%)”.

Regarding `CCOC(=O)OC(C)OC(=O)[C@H](Cc1cccc(S(C)(=O)=O)c1)NC(=O)c1c(Cl)cc2c(c1Cl)CCN(C(=O)c1ccc3ccoc3c1)C2` (stereo partly drawn) [Comp 4, 1-((ethoxycarbonyl)oxy)ethyl (2S)-2-(2-(benzofuran-6-carbonyl)-5,7-dichloro-1,2,3,4-tetrahydroisoquinoline-6-carboxamido)-3-(3-(methylsulfonyl)phenyl) propanoate], in series [1] (setting [3]), the “API Formation rate” value is reported as “b (API formation rate 0.5-1.0%/min)” and the “Esterase % Lifitegrast formation at 45 min” value is given as “B (percent API formation 25% to 50%)”. Moreover, in series [1] (setting [4]), the “API Formation rate” value is “c (API formation rate 1.0-1.5%/min)” and the “Esterase % Lifitegrast formation at 45 min” value was “C (percent API formation 51% to 75%)”. Also, the “Hydrolytic % Lifitegrast formation at [time]” value in series [2] (at 45 min) is “B [45 min] (percent API formation 1.5-4%)”.

For the compound `CC(OC(=O)OC(C)(C)C)OC(=O)[C@H](Cc1cccc(S(C)(=O)=O)c1)NC(=O)c1c(Cl)cc2c(c1Cl)CCN(C(=O)c1ccc3ccoc3c1)C2` (stereo partly drawn) [Comp 6, 1-((tert-butoxycarbonyl)oxy)ethyl (2S)-2-(2-(benzofuran-6-carbonyl)-5,7-dichloro-1,2,3,4-tetrahydroisoquinoline-6-carboxamido)-3-(3-(methylsulfonyl)phenyl) propanoate], in series [1] (setting [3]), the “API Formation rate” value is reported as “a (API formation rate<0.5%/min)” and the “Esterase % Lifitegrast formation at 45 min” value is reported as “A (percent active pharmaceutical ingredient (API) formation<25%)”. Also, in series [1] (setting [4]), the “API Formation rate” value is “b (API formation rate 0.5-1.0%/min)” and the “Esterase % Lifitegrast formation at 45 min” value was “B (percent API formation 25% to 50%)”. In addition, the “Hydrolytic % Lifitegrast formation at [time]” value in series [2] (at 142 min) was “C [142 min] (percent API formation>4%)”.

On to `CC(OC(=O)OCC(COC(=O)[C@@H](C)O)COC(=O)[C@@H](C)O)OC(=O)[C@H](Cc1cccc(S(C)(=O)=O)c1)NC(=O)c1c(Cl)cc2c(c1Cl)CCN(C(=O)c1ccc3ccoc3c1)C2` (stereo partly drawn) [Comp 13, 2-((8S)-10-(2-(benzofuran-6-carbonyl)-5,7-dichloro-1,2,3,4-tetrahydroisoquinolin-6-yl)-5-methyl-8-(3-(methylsulfonyl)benzyl)-3,7,10-trioxo-2,4,6-trioxa-9-azadecyl)propane-1,3-diyl (2R,2'R)-bis(2-hydroxypropanoate)], for which, in series [1] (setting [3]), the “API Formation rate” value is listed as “a (API formation rate<0.5%/min)” and the “Esterase % Lifitegrast formation at 45 min” value is “A (percent active pharmaceutical ingredient (API) formation<25%)”. In series [1] (setting [4]), the “API Formation rate” value was “a (API formation rate<0.5%/min)” and the “Esterase % Lifitegrast formation at 45 min” value is listed as “A (percent active pharmaceutical ingredient (API) formation<25%)”.
